From patent publication US12252524B2, “GIP/GLP1 co-agonist compounds” (Eli Lilly and Company, priority 2018, dated 2025)
Numbered stars: 1 amine (or outer) side, 2 acyl side, 3 side chain; on linkers, the order of the positions; unused ones are H or OH. Square brackets hold non-standard residues; d marks the D form. Side chains are listed from the residue outwards. Peptide text beside a SMILES is read from it. * marks the point of attachment. Malonyl(2,2-Me2,histaminyl) = CC(C)(C(=O)NCCc1cnc[nH]1)C(=O)*; C20 diacid = O=C(O)CCCCCCCCCCCCCCCCCCC(=O)*; γGlu = O=C(O)[C@H](CCC(=O)[*:2])N[*:1]; Desaminohistidyl = O=C(CCc1c[nH]cn1)*; Desaminotyrosyl = O=C(CCc1ccc(O)cc1)*; AEEA = NCCOCCOCC(=O)O; Aib = CC(C)(N)C(=O)O

Legend:
human Gcg receptor = target: T1, human Gcg receptor (Homo sapiens, UniProt P47871); test: [125I]-Glucagon binding (SPA), human Gcg receptor; details: read-out: hGLcgR Ki, nM (SEM, n)
T1 construct: expressed in transfected cells; crude membranes
Outline: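 Scintillation counts are taken after membranes and WGA beads incubate and settle for 12 hours at room temperature. Buffer is 25 mM HEPES, pH 7.4, with CaCl2, MgCl2, bacitracin and Tween-20. Ki values, from four-parameter IC50 fits, are geometric means over independent days.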

human GIP receptor = target: T2, human GIP receptor (Homo sapiens, UniProt P48546); test: [125I]-GIP binding (SPA), human GIP receptor; details: read-out: hGIPR Ki, nM (SEM, n)
T2 construct: expressed in transfected cells; crude membranes
T2 sequence (P48546 22-466): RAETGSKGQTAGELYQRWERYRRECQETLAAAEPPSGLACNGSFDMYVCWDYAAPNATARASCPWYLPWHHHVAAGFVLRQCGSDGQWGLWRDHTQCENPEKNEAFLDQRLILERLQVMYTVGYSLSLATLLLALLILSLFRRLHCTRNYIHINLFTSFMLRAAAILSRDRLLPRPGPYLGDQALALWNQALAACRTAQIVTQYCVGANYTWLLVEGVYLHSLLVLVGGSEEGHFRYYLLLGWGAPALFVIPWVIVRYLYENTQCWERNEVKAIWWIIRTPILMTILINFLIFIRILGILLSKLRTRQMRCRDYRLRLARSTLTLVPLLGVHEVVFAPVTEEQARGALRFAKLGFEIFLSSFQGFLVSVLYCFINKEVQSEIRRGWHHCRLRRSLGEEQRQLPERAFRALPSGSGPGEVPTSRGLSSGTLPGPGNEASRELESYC

[1] = target: human GLP-1 receptor (GLP-1R) (Homo sapiens, UniProt P43220); test: cAMP pharmacological functional assay in presence of casein, hGLP-1R; format: cell-based; details: HEK293 cells expressing hGLP-1R, 0.1% Casein, geometric mean; read-out: hGLP1R cAMP Rel EC50 nM (SEM, n)
[2] = target: T3, gastric inhibitory peptide receptor (GIPR) (Homo sapiens, UniProt P48546); test: cAMP pharmacological functional assay in presence of casein, hGIPR; format: cell-based; details: HEK293 cells expressing hGIPR, 0.1% Casein, geometric mean; read-out: hGIPR cAMP Rel EC50 nM (SEM, n)
T3 sequence (P48546 22-466): T2 sequence (P48546 22-466)

human GLP-1R = human GLP-1R (Homo sapiens, UniProt P43220); test: [125I]-GLP-1 binding (SPA), human GLP-1 receptor; design: expressed in transfected cells; crude membranes; details: read-out: hGLP1R Ki, (nM) (SEM, n)
Outline: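 Assay buffer: HEPES 25 mM, pH 7.4, CaCl2 2.5 mM, MgCl2 1 mM, with EDTA-free protease inhibitors. Receptor came from crude cell membranes prepared by homogenization and centrifugation at 4° C. IC50s came from four-parameter fits (maximum, minimum, IC50, Hill slope) and were expressed as Ki geometric means with SEM.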

human GLP-1R, sequence (P43220 24-463): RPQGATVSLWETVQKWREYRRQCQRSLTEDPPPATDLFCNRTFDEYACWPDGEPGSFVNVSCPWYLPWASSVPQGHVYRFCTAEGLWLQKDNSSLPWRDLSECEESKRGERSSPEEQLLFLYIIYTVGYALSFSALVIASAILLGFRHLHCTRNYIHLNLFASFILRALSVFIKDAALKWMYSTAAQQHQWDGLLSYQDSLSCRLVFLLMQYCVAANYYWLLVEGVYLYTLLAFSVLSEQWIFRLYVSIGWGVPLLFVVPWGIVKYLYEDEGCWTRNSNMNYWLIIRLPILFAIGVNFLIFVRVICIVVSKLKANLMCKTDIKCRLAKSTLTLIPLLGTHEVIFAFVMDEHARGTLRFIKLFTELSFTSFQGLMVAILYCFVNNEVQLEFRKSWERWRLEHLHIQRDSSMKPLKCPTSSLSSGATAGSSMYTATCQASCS
human GLP-1 receptor (GLP-1R), sequence (P43220 24-463): as above
T1 sequence (P47871 26-477): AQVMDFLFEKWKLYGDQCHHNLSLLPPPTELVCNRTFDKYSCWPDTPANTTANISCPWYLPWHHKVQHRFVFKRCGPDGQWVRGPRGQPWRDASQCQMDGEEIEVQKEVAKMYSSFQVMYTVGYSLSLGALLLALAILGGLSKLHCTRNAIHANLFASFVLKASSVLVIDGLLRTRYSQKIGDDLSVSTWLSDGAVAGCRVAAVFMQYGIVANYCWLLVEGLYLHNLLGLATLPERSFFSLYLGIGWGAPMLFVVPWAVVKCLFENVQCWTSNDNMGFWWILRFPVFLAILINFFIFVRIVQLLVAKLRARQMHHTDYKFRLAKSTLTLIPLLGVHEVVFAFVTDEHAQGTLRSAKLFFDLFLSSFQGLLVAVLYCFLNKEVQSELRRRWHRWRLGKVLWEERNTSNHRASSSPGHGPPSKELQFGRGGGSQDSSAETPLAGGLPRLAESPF

## CC[C@H](C)[C@H](NC(=O)[C@H](CC(C)C)NC(=O)[C@H](Cc1ccc(O)cc1)NC(=O)[C@H](CCC(=O)O)NC(=O)[C@@H](NC(=O)[C@H](Cc1ccccc1)NC(=O)[C@H](C)NC(=O)C(C)(C)NC(=O)[C@H](CCC(N)=O)NC(=O)[C@H](C)NC(=O)[C@H](CCCCNC(=O)COCCOCCNC(=O)COCCOCCNC(=O)CC[C@H](NC(=O)CCCCCCCCCCCCCCCCCCC(=O)O)C(=O)O)NC(=O)[C@H](CCCCN)NC(=O)[C@H](CC(=O)O)NC(=O)[C@H](CC(C)C)NC(=O)[C@H](CC(C)C)NC(=O)[C@@H](NC(=O)[C@H](CO)NC(=O)[C@H](Cc1ccc(O)cc1)NC(=O)[C@H](CC(=O)O)NC(=O)[C@H](CO)NC(=O)[C@@H](NC(=O)[C@H](Cc1ccccc1)NC(=O)[C@@H](NC(=O)CNC(=O)[C@H](CCC(=O)O)NC(=O)C(C)(C)C(=O)NCCc1cnc[nH]1)[C@@H](C)O)[C@@H](C)O)[C@@H](C)CC)[C@@H](C)CC)C(=O)N[C@@H](CCC(=O)O)C(=O)NCC(=O)NCC(=O)N1CCC[C@H]1C(=O)N[C@@H](CO)C(=O)N[C@@H](CO)C(=O)NCC(=O)N[C@@H](C)C(=O)N1CCC[C@H]1C(=O)N1CCC[C@H]1C(=O)N1CCC[C@H]1C(=O)N[C@@H](CO)C(N)=O [Example 105] ({Malonyl(2,2-Me2,histaminyl)}-EGTFTSDYSILLDKK([AEEA-AEEA-γGlu-C20 diacid])AQ[Aib]AFIEYLIEGGPSSGAPPPS-NH2)
Human Gcg receptor
  Ki: 20.4 nM
Human GIP receptor
  Ki: 0.119 nM
[1]
  EC50: 0.0401 nM
[2]
  EC50: 1.85 nM
Human GLP-1R
  Ki: 0.871 nM

## CC[C@H](C)[C@H](NC(=O)[C@H](CC(C)C)NC(=O)[C@H](Cc1ccc(O)cc1)NC(=O)[C@H](CCC(=O)O)NC(=O)[C@@H](NC(=O)[C@H](Cc1ccccc1)NC(=O)[C@H](C)NC(=O)C(C)(C)NC(=O)[C@H](CCC(N)=O)NC(=O)[C@H](C)NC(=O)[C@H](CCCCNC(=O)COCCOCCNC(=O)COCCOCCNC(=O)CC[C@H](NC(=O)CCCCCCCCCCCCCCCCCCC(=O)O)C(=O)O)NC(=O)[C@H](CCCCN)NC(=O)[C@H](CC(=O)O)NC(=O)[C@H](CC(C)C)NC(=O)[C@H](CC(C)C)NC(=O)[C@@H](NC(=O)[C@H](CO)NC(=O)[C@H](Cc1ccc(O)cc1)NC(=O)[C@H](CC(=O)O)NC(=O)[C@H](CO)NC(=O)[C@@H](NC(=O)[C@H](Cc1ccccc1)NC(=O)[C@@H](NC(=O)CNC(=O)[C@H](CCC(=O)O)NC(=O)C(C)(C)NC(=O)CCc1c[nH]cn1)[C@@H](C)O)[C@@H](C)O)[C@@H](C)CC)[C@@H](C)CC)C(=O)N[C@@H](CCC(=O)O)C(=O)NCC(=O)NCC(=O)N1CCC[C@H]1C(=O)N[C@@H](CO)C(=O)N[C@@H](CO)C(=O)NCC(=O)N[C@@H](C)C(=O)N1CCC[C@H]1C(=O)N1CCC[C@H]1C(=O)N1CCC[C@H]1C(=O)N[C@@H](CO)C(N)=O [Example 106] (Desaminohistidyl-[Aib]EGTFTSDYSILLDKK([AEEA-AEEA-γGlu-C20 diacid])AQ[Aib]AFIEYLIEGGPSSGAPPPS-NH2)
Human Gcg receptor
  Ki: 515 nM
Human GIP receptor
  Ki: 0.179 nM
[1]
  EC50: 0.0413 nM
[2]
  EC50: 6.54 nM
Human GLP-1R
  Ki: 1.2 nM

## CC[C@H](C)[C@H](NC(=O)[C@H](CC(C)C)NC(=O)[C@H](Cc1ccc(O)cc1)NC(=O)[C@H](CCC(=O)O)NC(=O)[C@@H](NC(=O)[C@H](Cc1ccccc1)NC(=O)[C@H](C)NC(=O)C(C)(C)NC(=O)[C@H](CCC(N)=O)NC(=O)[C@H](C)NC(=O)[C@H](CCCCNC(=O)COCCOCCNC(=O)COCCOCCNC(=O)CC[C@H](NC(=O)CCCCCCCCCCCCCCCCCCC(=O)O)C(=O)O)NC(=O)[C@H](CCCCN)NC(=O)[C@H](CC(=O)O)NC(=O)[C@H](CC(C)C)NC(=O)[C@H](CC(C)C)NC(=O)[C@@H](NC(=O)[C@H](CO)NC(=O)[C@H](Cc1ccc(O)cc1)NC(=O)[C@H](CC(=O)O)NC(=O)[C@H](CO)NC(=O)[C@@H](NC(=O)[C@H](Cc1ccccc1)NC(=O)[C@@H](NC(=O)CNC(=O)[C@H](CCC(=O)O)NC(=O)C(C)(C)NC(=O)CCc1ccc(O)cc1)[C@@H](C)O)[C@@H](C)O)[C@@H](C)CC)[C@@H](C)CC)C(=O)N[C@@H](CCC(=O)O)C(=O)NCC(=O)NCC(=O)N1CCC[C@H]1C(=O)N[C@@H](CO)C(=O)N[C@@H](CO)C(=O)NCC(=O)N[C@@H](C)C(=O)N1CCC[C@H]1C(=O)N1CCC[C@H]1C(=O)N1CCC[C@H]1C(=O)N[C@@H](CO)C(N)=O [Example 107] (Desaminotyrosyl-[Aib]EGTFTSDYSILLDKK([AEEA-AEEA-γGlu-C20 diacid])AQ[Aib]AFIEYLIEGGPSSGAPPPS-NH2)
Human Gcg receptor
  Ki: 303 nM
Human GIP receptor
  Ki: 0.0425 nM
[1]
  EC50: 0.0539 nM
[2]
  EC50: 0.241 nM
Human GLP-1R
  Ki: 0.867 nM

## CC[C@H](C)[C@H](NC(=O)[C@H](CC(C)C)NC(=O)[C@H](Cc1ccc(O)cc1)NC(=O)[C@H](CCC(=O)O)NC(=O)[C@@H](NC(=O)[C@H](Cc1ccccc1)NC(=O)[C@H](C)NC(=O)C(C)(C)NC(=O)[C@H](CCC(N)=O)NC(=O)[C@H](C)NC(=O)[C@H](CCCCNC(=O)CCCCCCCNC(=O)COCCOCCNC(=O)CC[C@H](NC(=O)CCCCCCCCCCCCCCCCCCC(=O)O)C(=O)O)NC(=O)[C@H](CCCCN)NC(=O)[C@H](CC(=O)O)NC(=O)[C@H](CC(C)C)NC(=O)[C@H](CC(C)C)NC(=O)[C@@H](NC(=O)[C@H](CO)NC(=O)[C@H](Cc1ccc(O)cc1)NC(=O)[C@H](CC(=O)O)NC(=O)[C@H](CO)NC(=O)[C@@H](NC(=O)[C@H](Cc1ccccc1)NC(=O)[C@@H](NC(=O)CNC(=O)[C@H](CCC(=O)O)NC(=O)C(C)(C)NC(=O)[C@@H](N)Cc1ccc(O)cc1)[C@@H](C)O)[C@@H](C)O)[C@@H](C)CC)[C@@H](C)CC)C(=O)N[C@@H](CCC(=O)O)C(=O)NCC(=O)NCC(=O)N1CCC[C@H]1C(=O)N[C@@H](CO)C(=O)N[C@@H](CO)C(=O)NCC(=O)N[C@@H](C)C(=O)N1CCC[C@H]1C(=O)N1CCC[C@H]1C(=O)N1CCC[C@H]1C(=O)N[C@@H](CO)C(N)=O [Example 109]
Human Gcg receptor
  Ki: 43.1 nM
Human GIP receptor
  Ki: 0.0279 nM
[1]
  EC50: 0.35 nM
[2]
  EC50: 0.109 nM
Human GLP-1R
  Ki: 1.34 nM

## CC[C@H](C)[C@H](NC(=O)[C@H](CC(C)C)NC(=O)[C@H](Cc1ccc(O)cc1)NC(=O)[C@H](CCC(=O)O)NC(=O)[C@@H](NC(=O)[C@H](Cc1ccccc1)NC(=O)[C@H](C)NC(=O)C(C)(C)NC(=O)[C@H](CCC(N)=O)NC(=O)[C@H](C)NC(=O)[C@H](CCCCNC(=O)COCCOCCNC(=O)CC[C@H](NC(=O)[C@H]1CC[C@H](CNC(=O)CCCCCCCCCCCCCCCCCCC(=O)O)CC1)C(=O)O)NC(=O)[C@H](CCCCN)NC(=O)[C@H](CC(=O)O)NC(=O)[C@H](CC(C)C)NC(=O)[C@H](CC(C)C)NC(=O)[C@@H](NC(=O)[C@H](CO)NC(=O)[C@H](Cc1ccc(O)cc1)NC(=O)[C@H](CC(=O)O)NC(=O)[C@H](CO)NC(=O)[C@@H](NC(=O)[C@H](Cc1ccccc1)NC(=O)[C@@H](NC(=O)CNC(=O)[C@H](CCC(=O)O)NC(=O)C(C)(C)NC(=O)[C@@H](N)Cc1ccc(O)cc1)[C@@H](C)O)[C@@H](C)O)[C@@H](C)CC)[C@@H](C)CC)C(=O)N[C@@H](CCC(=O)O)C(=O)NCC(=O)NCC(=O)N1CCC[C@H]1C(=O)N[C@@H](CO)C(=O)N[C@@H](CO)C(=O)NCC(=O)N[C@@H](C)C(=O)N1CCC[C@H]1C(=O)N1CCC[C@H]1C(=O)N1CCC[C@H]1C(=O)N[C@@H](CO)C(N)=O [Example 110]
Human Gcg receptor
  Ki: 73.9 nM
Human GIP receptor
  Ki: 0.0395 nM
[1]
  EC50: 0.179 nM
[2]
  EC50: 0.218 nM
Human GLP-1R
  Ki: 4.38 nM
